# Measured values as given in patent US20240197871A1, “COMBINATION OF A CAR T CELL THERAPY AND AN IMMUNOMODULATORY COMPOUND FOR TREATMENT OF LYMPHOMA” (Juno Therapeutics, Inc., priority 2021, published 2024).
# Test system: RL CD19+ tumor cells
# Experiment: Cytolytic function: co-culture of anti-CD19 CAR T cells with RL CD19+ tumor cells
# Format: cell-based
# Details: E:T 1:1
# Method: To do so, CAR T cells were plated on ploy-D-lysine plates. CD19+ tumor cells transduced with IncuCyte® NucLight Red (Essen BioScience Inc.) were then added to the CAR T cells in addition to Compound C or vehicle control. Tumor cell number was measured over multiple days.
# Treatment with CAR T cells in combination with either immunomodulatory compound led to lower tumor cell numbers than did CAR T cells alone or the compounds alone.
smiles,measurement,setting,value
"O=C1CC[C@H](N2Cc3c(OCc4ccc(CN5CCOCC5)cc4)cccc3C2=O)C(=O)N1 [Compound 2, (S)-3-[4-(4-morpholin-4-ylmethyl-benzyloxy)-1-oxo-1,3-dihydro-isoindol-2-yl]-piperidine-2,6-dione, reference compound]",RL tumor cell number vs CAR T cells alone or compound alone,compound at 0.01 μM with anti-CD19 CAR T cells,lower
same,RL tumor cell number vs CAR T cells alone or compound alone,compound at 0.1 μM with anti-CD19 CAR T cells,lower
